Test results taken from patent US12286400B2, “Isofagomine salts, methods of use and formulations” (TAKEDA PHARMACEUTICAL COMPANY LIMITED, priority 2019, dated 2025).

Legend:
[1] = Storage stress-tests at 80° C. in closed vials (CAD-HPLC, 1H-NMR, XRPD); format: physicochemical
Method: In order to obtain insight regarding thermal stability of the four crystalline IFG salts, storage stress-tests at 80° C. over several days were conducted. A sample of the free base (SP245-FB-P4), a fumarate sample (SP245-FUM-P5), a D-tartrate sample (SP245-DTA-P7), an L-tartrate sample (SP245-LTA-P5) and an oxalate sample SP245-OXA-P2 were stored at 80° C. for one, three and seven days in closed vials. Samples were tested by CAD and ^1H-NMR.
CAD-HPLC was performed in order to identify the possible adducts or thermal degradation product that could be generated upon storage under the given conditions. All samples were examined by CAD-HPLC; however, no considerable changes were observed between the starting materials and the stored samples. […] In addition, XRPD was carried out for the seven-day stored crystalline salt samples and the XRPD patterns before and after storage were essentially identical.
NMR spectroscopy was conducted on the seven-day stored samples.

[2] = test system: mutant GCase; details: in vitro, fibroblasts from Gaucher patients; cited from earlier work
[3] = Dynamic vapor sorption (DVS); format: physicochemical; details: for additional weight gain upon storage at 95% RH: holding at 95% RH; for mass gain until 95% RH: scanning up to 95% RH; for gain in weight when increasing the RH from 0 to 80%: RH 0 to 80%
Description: The behavior of the IFG quinate salt, sample SP245-QNC-P2, was investigated in the presence of variable water vapor pressure using DVS measurement. The result from the DVS test is presented in FIG. 6 and FIG. 6B as the DVS isotherm of sample SP245-QNC-P2: the change of relative sample weight (red curve) and relative humidity (blue curve) as a function of time.
The SP245-QNC-P2 salt prepared in example 1 is hygroscopic at high relative humidity; i.e., above about 80% RH.
The effect of changes in relative humidity on the IFG fumarate sample SP245-FUM-P4 was studied using DVS.
The IFG fumarate salt is hygroscopic at relative humidities above about 80%.
The effect of changes in relative humidity on the IFG oxalate salt sample SP245-OXA-P1 was studied using DVS.
The oxalate salt is hygroscopic above 80% RH.
The effect of changes in relative humidity on the crystalline IFG tartrate salt sample SP245-DTA-P3 was studied using DVS.

[4] = TG-FTIR thermogram; format: physicochemical
Method: The obtained crystalline form SP245-QNC-P2 is anhydrous/non-solvated. […] Decomposition is observable above 200° C.
The fumarate salt is a solvent and water-free form. Decomposition is observable above 150° C.

| Compound | CAD-HPLC Area % ([1]; 80° C., closed vial, 1 day) [%] | CAD-HPLC Area % ([1]; 80° C., closed vial, 3 days) [%] | CAD-HPLC Area % ([1]; 80° C., closed vial, 7 days) [%] | NMR after storage compared to the non-stressed sample ([1]; 80° C., seven days) | CAD-HPLC Area % ([1]; starting material) [%] | effect on activity of mutant GCase [2] | relative humidity up to which the salt is not hygroscopic ([3]; DVS) [%] | mass change upon increasing the relative humidity from 0% to 70% ([3]; DVS, RH 0% to 70%) | additional weight gain upon storage at 95% RH ([3]; DVS) [%] | mass gain until 95% RH ([3]; DVS) [%] | Decomposition observable above [4] | relative humidity above which the salt is hygroscopic ([3]; DVS) | gain in weight when increasing the RH from 0 to 80% ([3]; DVS) | weight loss when decreasing the relative humidity from 50 to 0% RH ([3]; DVS, RH 50 to 0%) [weight %] | gain in weight at 95% RH compared to the first cycle ([3]; DVS, second cycle) [%] | XRPD of sample recovered after DVS measurement [3] | gain in weight when increasing the RH from 0 to 75% ([3]; DVS, RH 0 to 75%) | weight change when decreasing the relative humidity from 50 to 0% ([3]; DVS, RH 50 to 0%) |
| --- | --- | --- | --- | --- | --- | --- | --- | --- | --- | --- | --- | --- | --- | --- | --- | --- | --- | --- |
| OC[C@H]1CNC[C@@H](O)[C@@H]1O [SP245-FB-P4, (3R,4R,5R)-3,4-dihydroxy-5-hydroxymethylpiperidine, reference compound] | 80.2 | 80.6 | 80.4 | several additional NMR signals were observed after storage | 81.1 | increase the activity of mutant GCase | – | – | – | – | – | – | – | – | – | – | – | – |
| O=C(O)C(O)C(O)C(=O)O.OC[C@H]1CNC[C@@H](O)[C@@H]1O [SP245-LTA-P5, IFG L-(+)-tartrate] | 83.9 | 84.1 | 85.3 | – | 84.3 | – | – | – | – | – | – | – | – | – | – | – | – | – |
| isofagomine D-(−)-tartrate [SP245-DTA-P3] | 85 | 85.1 | 85.6 | – | 86.3 | – | 70 | No mass change | 70 | 32 | – | – | – | – | – | – | – | – |
| isofagomine fumarate [SP245-FUM-P4] | 86.9 | 87.1 | 87.8 | – | 87.9 | – | – | – | 47 | 11 | above 150 °C | about 80 % RH | no considerable gain in sample mass | < 1 | 5 | correspond to the sample SP245-FUM-P4 used as starting material | – | – |
| isofagomine oxalate [SP245-OXA-P1] | 83.6 | 82.9 | 83.6 | – | 85.9 | – | – | – | 90 | 30 | – | 80 % RH | – | – | – | corresponds to the starting material | no gain in weight | No significant loss in weight |
| isofagomine quinate [SP245-QNC-P2] | – | – | – | – | – | – | – | – | 70 | 20 | above 200 °C | about 80 % RH | no gain in weight | – | – | no form change was observed | – | No significant loss in weight |
